Data set [1] in a line: Fluorescence emission peak wavelength. It is filed as physicochemical. To be noted: dilute solution (A ~0.1) in acetonitrile; excitation at absorption maximum. As to the method:
Fluorescence emission peak wavelength: Fluorescence spectra of the photosensitizers were recorded using a Horiba Jobin Yvon Fluoromax4 spectrofluorometer. The measurement for each photosensitizer was taken in a dilute solution (A ~0.1) of spectroscopic grade acetonitrile, using 1 cm path cell. The excitation wavelength was set at the maximum of absorption of the photosensitizer.

Data set [2] in a line: Maximum absorption peak wavelength. It is filed as physicochemical. The note with it: spectroscopic grade acetonitrile; maximum between 300 nm and 450 nm. As to the method: Maximum absorption peak wavelength: Absorption spectra have been recorded using an AnalytikJena S600 spectrophotometer. On a microbalance, the photosensitizer was weighted with a 10^-6 g precision in a DSC crucible. The crucible and its content was transferred in volumetric flask, then filled with spectroscopic grade acetonitrile. The reference was taken for the empty spectrometer, and two series of spectra were recorded for each solution, in a 1 cm path and in a 1 mm path cells. The spectra of the solvent was taken separately in both cell and then subtracted to solutions spectra. The absorption maxima value is taken where the absorption spectra reaches its maximum in the region between (300 nm and 450 nm)

Take `CCSc1ccc2cc(-c3ccccc3)c(=O)oc2c1` [S1]: the “λ^fluo max” value in data set [1] is 440 nm. Besides, the “λ^abs max” value in data set [2] is recorded as 345 nm.

As for `CCCCC(CC)CSc1ccc2cc(-c3ccccc3)c(=O)oc2c1` (stereo not drawn) [S2], the “λ^fluo max” value in data set [1] came to 411 nm. In data set [2], the “λ^abs max” value was determined as 352 nm.

Regarding `CCSc1ccc(-c2cc3ccc(SCC)cc3oc2=O)cc1` [S3], in data set [1], the “λ^fluo max” value was determined as 439 nm. In addition, the “λ^abs max” value in data set [2] was found to be 347 nm.

Turning to `CN(C)CCSc1ccc2cc(-c3ccccc3)c(=O)oc2c1` [S4], the “λ^fluo max” value in data set [1] is listed as 435 nm. For the same compound, the “λ^abs max” value in data set [2] was 351 nm.

Regarding `Cc1cc(=O)oc2cc(SCCO)ccc12` [S5], the “λ^fluo max” value in data set [1] is on record as 396 nm. In data set [2], the “λ^abs max” value was 330 nm.

Consider `Cc1c(-c2ccccc2)c(=O)oc2cc(SCCO)ccc12` [S6], for which the “λ^fluo max” value in data set [1] is on record as 424 nm. The “λ^abs max” value in data set [2] was 335 nm.

With `CSc1ccc2cc(-c3nc4ccccc4n3C)c(=O)oc2c1` [S7], the “λ^fluo max” value in data set [1] was 476 nm. Also, the “λ^abs max” value in data set [2] is listed as 362 nm.

On to `CCN(CC)c1ccc2c(C)cc(=O)oc2c1` [S8, 7-diethylamino-4-methylcoumarin, reference compound], for which the “λ^fluo max” value in data set [1] is on record as 434 nm. Besides, the “λ^abs max” value in data set [2] amounted to 370 nm.

On to `CCSc1ccc2ccc(=O)oc2c1` [S9], for which the “λ^fluo max” value in data set [1] is reported as 406 nm. The “λ^abs max” value in data set [2] is on record as 323 nm.

The values above are taken from patent EP4579344A1, “THIOALKYLCOUMARIN PHOTOSENSITIZERS FOR PHOTOPOLYMERIZATION” (IGM Group B.V., priority 2023, dated 2025).
